Data published in patent US20040142979A1, “Heteroarylsulfonylmethyl hydroxamic acids and amides and their use as protease inhibitors” (priority 2002, published 2004).
pKi: −log10 of the molar value.

What follows are compounds tested against T1, Human recombinant MMP-2 (Homo sapiens, UniProt P08253) (assay: In vitro MMP inhibition analysis (fluorogenic peptide substrate), MMP-2). Conditions: human recombinant enzyme; 4 μM substrate (A); apparent Ki without substrate correction.
T1 construct: made in house; host or cells: MMP-2-transfected p2AHT2 cells
T1 sequence (P08253 110-660): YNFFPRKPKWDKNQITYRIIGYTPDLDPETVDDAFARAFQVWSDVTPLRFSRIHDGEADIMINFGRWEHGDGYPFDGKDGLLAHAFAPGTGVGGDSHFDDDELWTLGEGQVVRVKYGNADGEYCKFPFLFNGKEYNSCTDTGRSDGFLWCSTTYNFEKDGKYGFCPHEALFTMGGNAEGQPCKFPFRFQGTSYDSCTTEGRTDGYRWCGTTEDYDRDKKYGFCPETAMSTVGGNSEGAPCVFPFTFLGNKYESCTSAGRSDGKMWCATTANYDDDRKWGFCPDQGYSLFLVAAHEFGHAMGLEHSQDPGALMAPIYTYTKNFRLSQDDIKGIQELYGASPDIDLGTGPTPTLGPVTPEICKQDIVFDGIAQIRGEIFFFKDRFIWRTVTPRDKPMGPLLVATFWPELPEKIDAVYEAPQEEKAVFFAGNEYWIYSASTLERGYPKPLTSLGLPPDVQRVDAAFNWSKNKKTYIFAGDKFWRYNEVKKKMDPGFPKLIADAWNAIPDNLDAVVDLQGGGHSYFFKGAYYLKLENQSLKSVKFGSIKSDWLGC
Type: biochemical
Procedure: Several compounds and salts were analyzed in an in vitro assay to determine their ability to inhibit the MMP cleavage of peptide substrates. Inhibition constant (Ki) were calculated from the assayed compound-MMP interactions.
Human recombinant MMP-1, MMP-2, MMP-9, MMP-13, and MMP-14 were used in this assay. All enzymes were prepared in Assignee's laboratories following usual laboratory procedures. Protocols for the preparation and use of these enzymes are available in the scientific literature. See, e.g., Enzyme Nomenclature (Academic Press, San Diego, Calif., 1992) (and the citations therein). See also, Freije et al., J. Biol. Chem., 269(24), 16766-16773 (1994).
The MMP-2 proenzyme was purified by gelatin Sepharose chromatography from MMP-2- transfected p2AHT2 cells provided by Dr. Gregory Goldberg of Washington University (St. Louis, Mo.).
All MMPs were activated using 4-aminophenylmercuric acetate (“APMA”, Sigma Chemical, St. Louis, Mo.) or trypsin. MMP-9 also was activated using human recombinant MMP-3 (purified in Assignee's laboratory following standard cloning and purification techniques).
The following fluorogenic, methoxycoumarin-containing polypeptide substrate (A) was used in the MMP inhibition assays:
MCA-ArgProLeuGlyLeuDpaAlaArgGluArgNH2 (A)
“MCA” is 7-methoxycoumarin-4-yl acetyl. Substrate (A) was prepared Assignee's laboratory. In the absence of MMP inhibitory activity, the substrate is cleaved at the Gly-Leu peptide bond. This cleavage separates the highly fluorogenic peptide from the 2,4-dinitrophenyl quencher, thus resulting in increase of fluorescent intensity.
The stock solutions of the assayed compounds and salts were prepared in 1% dimethyl sulfoxide (DMSO). These stock solutions were diluted in Buffer A (100 mM Tris-HCl, 100 mM NaCl, 10 mM CaCl2, 0.05% polyoxyethylene 23 lauryl ether, pH 7.5) to obtain solutions with different compound concentrations, i.e., assay solutions with different concentrations of the assayed MMP inhibitory compound. The experiment controls contained the same amount of Buffer A/DMSO as the assayed sample, but contained none of the tested compound or salt.
The assays from which the Ki determinations were made were performed as follows. The assayed compound samples were incubated in separate wells of untreated white polystyrene plates (Nunc Nalgene International, Rochester, N.Y.), and analyzed on a Tecan SpectraFlour Plus plate reader. The excitation wavelength was 330 nm, and the emission wavelength -420 nm. All samples (assayed compounds and controls) were incubated in separate plate wells at room temperature for 1 hr in the presence of 4 μM of MMP substrate (A). In the absence of MMP inhibitory activity, substrate (A) was cleaved at the Gly-Leu bond resulting in an increase of relative fluorescence. Inhibition was observed as a reduced rate of this increase in relative fluorescence. […] This protocol is a modification of method by Knight et al., FEBS Lett., 296(3), 263-266 (1992). Apparent inhibitory constants were determined by non-linear regression of reaction velocity as a function of inhibitor and enzyme concentration using Morrison's equation, as described by Kuzmic, P., et al., Anal. Biochem., 286(1):45-50 (2000). Modifications were made in the non-linear regression method to allow a common control reaction rate and effective enzyme concentration to be shared between all dose-response relationships on a given assay plate. Since the substrate concentration was chosen to be at or below the Km, the apparent Ki's from this analysis were reported as Ki's without correction for the influence of substrate.
The above protocols were used to determine MMP inhibition Ki constants for the compounds in Examples 1, 2, and 4-42 above. All Ki values in Table 3 are given in nM units.

**Q.** CCCCOc1ccc(-c2ccc(S(=O)(=O)C3(C(=O)NO)CCOCC3)s2)cc1 [Example 43] was tested. Which pKi did it give?
**A.** 9.32

**Q.** How did the pKi turn out when O=C(NO)C1(S(=O)(=O)c2ccc(-c3ccc(OC(F)(F)C(F)F)cc3)s2)CCOCC1 [Example 44] was run?
**A.** 9.76

**Q.** CCCCCc1ccc(-c2ccc(S(=O)(=O)C3(C(=O)NO)CCOCC3)cn2)cc1 [Example 45] was tested. Which pKi did it give?
**A.** 8.68

**Q.** How did the pKi turn out when O=C(NO)C1(S(=O)(=O)c2ccc(-c3ccc(OCC(F)(F)F)cc3)nc2)CCOCC1 [Example 46] was run?
**A.** 9.44

**Q.** O=C(NO)C1(S(=O)(=O)c2ccc(-c3ccc(OC(F)(F)C(F)F)cc3)nc2)CCOCC1 [Example 47] was tested. Which pKi did it give?
**A.** 9.56

**Q.** O=C(NO)C1(S(=O)(=O)c2ccc(-c3ccc(OC(F)(F)C(F)F)cc3)nc2)CCOCC1 [Example 48] was tested. Which pKi did it give?
**A.** 9.65

**Q.** How did the pKi turn out when O=C(NO)C1(S(=O)(=O)c2ccc(-c3ccc(CCC(F)(F)C(F)(F)F)cn3)s2)CCOCC1 [Example 49] was run?
**A.** 8.50

**Q.** O=C(NO)C1(S(=O)(=O)c2ccc(-c3ccc(C(F)(F)F)cn3)s2)CCOCC1 [Example 50] was tested. Which pKi did it give?
**A.** 7.53

**Q.** How did the pKi turn out when O=C(NO)C1(S(=O)(=O)c2ccc3nc(-c4ccc(OC(F)(F)F)cc4)sc3c2)CCOCC1 [Example 51] was run?
**A.** 8.68

**Q.** CCCCc1ccc(C(=O)C2CCN(c3nc4ccc(S(=O)(=O)C5(C(=O)NO)CCOCC5)cc4s3)CC2)s1 [Example 52] was tested. Which pKi did it give?
**A.** 7.12

**Q.** CCCc1ccc(-c2nc3ccc(S(=O)(=O)C4(C(=O)NO)CCOCC4)cc3s2)cc1 [Example 53] was tested. Which pKi did it give?
**A.** 8.45

**Q.** CC(C)Cc1ncc(-c2nc3ccc(S(=O)(=O)C4(C(=O)NO)CCOCC4)cc3s2)s1 [Example 54] was tested. Which pKi did it give?
**A.** 7.45

**Q.** How did the pKi turn out when O=C(NO)C1(S(=O)(=O)c2ccc3nc(-c4cccc(C(F)(F)F)c4)sc3c2)CCOCC1 [Example 55] was run?
**A.** 6.21

**Q.** How did the pKi turn out when O=C(NO)C1(S(=O)(=O)c2ccc3nc(N4CCC(Oc5ccc(OC(F)(F)F)cc5)CC4)sc3c2)CCOCC1 [Example 56] was run?
**A.** 7.39

**Q.** How did the pKi turn out when O=C(NO)C1(S(=O)(=O)c2ccc3nc(-c4ccc(C(F)(F)F)cc4)sc3c2)CCOCC1 [Example 57] was run?
**A.** 8.73

**Q.** With CCc1ccc(-c2nc3ccc(S(=O)(=O)C4(C(=O)NO)CCOCC4)cc3s2)cc1 [Example 58] as the compound, how does the pKi read?
**A.** 8.82

**Q.** How did the pKi turn out when O=C(NO)C1(S(=O)(=O)c2ccc3nc(-c4ccc(Cl)s4)sc3c2)CCOCC1 [Example 59] was run?
**A.** 8.70

**Q.** How did the pKi turn out when O=C(NO)C1(S(=O)(=O)c2ccc3nc(-c4ccc(F)c(F)c4)sc3c2)CCOCC1 [Example 60] was run?
**A.** 7.99

**Q.** With O=C(NO)C1(S(=O)(=O)c2ccc3nc(-c4ccc(F)cc4F)sc3c2)CCOCC1 [Example 61] as the compound, how does the pKi read?
**A.** 7.83

**Q.** With O=C(NO)C1(S(=O)(=O)c2ccc3nc(-c4ccsc4)sc3c2)CCOCC1 [Example 62] as the compound, how does the pKi read?
**A.** 8.32

**Q.** How did the pKi turn out when COCCN1CCC(C(=O)NO)(S(=O)(=O)c2ccc3nc(-c4ccc(OC(F)(F)F)cc4)sc3c2)CC1 [Example 63] was run?
**A.** 8.65

**Q.** How did the pKi turn out when O=C(NO)C1(S(=O)(=O)c2ccc3nc(-n4cnc(-c5ccccc5)c4)sc3c2)CCOCC1 [Example 64] was run?
**A.** 6.82

**Q.** With O=C(NO)C1(S(=O)(=O)c2ccc3nc(-c4ccc5c(c4)OCO5)sc3c2)CCOCC1 [Example 65] as the compound, how does the pKi read?
**A.** 8.35

**Q.** How did the pKi turn out when CCOc1ccc(-c2nc3ccc(S(=O)(=O)C4(C(=O)NO)CCOCC4)cc3s2)cc1 [Example 66] was run?
**A.** 8.66

**Q.** With O=C(NO)C1(S(=O)(=O)c2ccc3nc(-c4ccc(SC(F)(F)F)cc4)sc3c2)CCOCC1 [Example 67] as the compound, how does the pKi read?
**A.** 8.56

**Q.** With O=C(NO)C1(S(=O)(=O)c2ccc(-c3ccc(CCC(F)(F)F)cc3)nc2)CCOCC1 [Example 68] as the compound, how does the pKi read?
**A.** 9.18

**Q.** With O=C(NO)C1(S(=O)(=O)c2ccc(-c3ccc(CCC(F)(F)C(F)(F)F)cc3)nc2)CCOCC1 [Example 69] as the compound, how does the pKi read?
**A.** 9.12

**Q.** With CCCCc1ccc(C(=O)C2CCN(c3ccc(S(=O)(=O)C4(C(=O)NO)CCOCC4)cn3)CC2)s1 [Example 70] as the compound, how does the pKi read?
**A.** 5.74

**Q.** With CC(C)CN(C)C(=O)Cc1ccc(-c2ccc(S(=O)(=O)C3(C(=O)NO)CCOCC3)cn2)cc1 [Example 71] as the compound, how does the pKi read?
**A.** 6.26

**Q.** O=C(Cc1ccc(-c2ccc(S(=O)(=O)C3(C(=O)NO)CCOCC3)cn2)cc1)N1CCCCC1 [Example 72] was tested. Which pKi did it give?
**A.** 6.52

**Q.** CCCCNC(=O)Cc1ccc(-c2ccc(S(=O)(=O)C3(C(=O)NO)CCOCC3)cn2)cc1 [Example 73] was tested. Which pKi did it give?
**A.** 7.04

**Q.** How did the pKi turn out when CCCCN(C)C(=O)Cc1ccc(-c2ccc(S(=O)(=O)C3(C(=O)NO)CCOCC3)cn2)cc1 [Example 74] was run?
**A.** 6.41

**Q.** CN(C(=O)Cc1ccc(-c2ccc(S(=O)(=O)C3(C(=O)NO)CCOCC3)cn2)cc1)c1ccc(OC(F)(F)F)cc1 [Example 75] was tested. Which pKi did it give?
**A.** 9.66

**Q.** With CCCCNC(=O)c1ccc(-c2ccc(S(=O)(=O)C3(C(=O)NO)CCOCC3)cn2)cc1 [Example 76] as the compound, how does the pKi read?
**A.** 7.58

**Q.** How did the pKi turn out when CN(C(=O)c1ccc(-c2ccc(S(=O)(=O)C3(C(=O)NO)CCOCC3)cn2)cc1)c1ccccc1 [Example 78] was run?
**A.** 6.05

**Q.** CCN(CC)C(=O)c1ccc(-c2ccc(S(=O)(=O)C3(C(=O)NO)CCOCC3)cn2)cc1 [Example 79] was tested. Which pKi did it give?
**A.** 5.09

**Q.** How did the pKi turn out when CN(C(=O)c1ccc(-c2ccc(S(=O)(=O)C3(C(=O)NO)CCOCC3)cn2)cc1)c1ccc(OC(F)(F)F)cc1 [Example 81] was run?
**A.** 5.69

**Q.** With CC(C)CN(C)C(=O)c1ccc(-c2ccc(S(=O)(=O)C3(C(=O)NO)CCOCC3)cn2)cc1 [Example 82] as the compound, how does the pKi read?
**A.** 6.18

**Q.** How did the pKi turn out when O=C(NO)C1(S(=O)(=O)c2ccc3c(c2)sc2nc(-c4ccccc4)cn23)CCOCC1 [Example 83] was run?
**A.** 7.33

**Q.** O=C(NO)C1(S(=O)(=O)c2ccc(-c3ccc(OC(F)(F)F)cc3)nc2)CCOCC1 [Example 84] was tested. Which pKi did it give?
**A.** 9.09
